Measurements as given in patent publication US7192906B2, “Substituted pyrazole derivatives, production process thereof, and herbicide compositions containing the derivatives” (SDS Biotech K.K., priority 2001, dated 2007).

What was measured:
Assay type in all cases: in vivo
[1] = tested on: Echinochloa crusgalli; assay: Test Example 3 paddy field treatment; settings: paddy field treatment, wettable powder, active ingredient 1 kg per hectare, 21st day after the dropping, index 0-5
Method in brief: (§1)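 Weed seeds sown in puddled paddy soil under 4 cm water, with two-leaf Koshihikari rice transplanted; 10 days later a wettable powder was applied to the water surface at 1 kg active ingredient/ha. Scored 21 days after application on a 0–5 scale (0 = <10%, 5 = ≥90% herbicidal effect or phytotoxicity).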

[2] = tested on: Ammannia multiflora; assay: Test Example 3 paddy field treatment; settings: paddy field treatment, wettable powder, active ingredient 1 kg per hectare, 21st day after the dropping, index 0-5
Method in brief: as §1

[3] = tested on: Scirpus juncoides; assay: Test Example 3 paddy field treatment; settings: paddy field treatment, wettable powder, active ingredient 1 kg per hectare, 21st day after the dropping, index 0-5
Method in brief: as §1

[4] = tested on: Monochoria vaginalis; assay: Test Example 3 paddy field treatment; settings: paddy field treatment, wettable powder, active ingredient 1 kg per hectare, 21st day after the dropping, index 0-5
Method in brief: as §1

[5] = tested on: Rice (Oryza sativa); assay: Test Example 3 paddy field treatment, crop phytotoxicity; settings: paddy field treatment, transplanted rice Koshihikari, wettable powder, active ingredient 1 kg per hectare, 21st day after the dropping, index 0-5
Method in brief: as §1

[6] = tested on: soybean (Glycine max); assay: Test Example 1 upland field foliage treatment, crop phytotoxicity; settings: Table 4, upland field foliage treatment, index 0-5
Method in brief: (§2)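 Scores are visual 0–5 ratings of herbicidal effect or crop injury (0: under 10%; 5: 90% or more) taken 21 days after treatment. Plants grew from seed in upland soil for 14 days, then foliage received the compound as a water-diluted wettable powder at 1 kg/ha active ingredient.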

[7] = tested on: wheat (Triticum aestivum); assay: as above; settings: Table 4, upland field foliage treatment, index 0-5
Method in brief: as §2

[8] = tested on: Digitaria adscendens; assay: Test Example 2 upland soil treatment; settings: Table 5, upland soil treatment, index 0-5
Method in brief: (§3)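 Visual 0–5 grading of herbicidal effect or phytotoxicity, made 21 days after a single pre-emergence soil-surface application at 1 kg a.i./ha.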

[9] = tested on: Stellaria media; assay: Test Example 2 upland soil treatment; settings: Table 5, upland soil treatment, index 0-5
Method in brief: as §3

[10] = tested on: Chenopodium album; assay: Test Example 2 upland soil treatment; settings: Table 5, upland soil treatment, index 0-5
Method in brief: as §3

[11] = tested on: Setaria viridis; assay: Test Example 2 upland soil treatment; settings: Table 5, upland soil treatment, index 0-5
Method in brief: as §3

[12] = tested on: Digitaria adscendens; assay: Test Example 1 upland field foliage treatment; settings: Table 4, upland field foliage treatment, index 0-5
Method in brief: as §2

[13] = tested on: Stellaria media; assay: Test Example 1 upland field foliage treatment; settings: Table 4, upland field foliage treatment, index 0-5
Method in brief: as §2

[14] = tested on: Chenopodium album; assay: Test Example 1 upland field foliage treatment; settings: Table 4, upland field foliage treatment, index 0-5
Method in brief: as §2

[15] = tested on: Setaria viridis; assay: Test Example 1 upland field foliage treatment; settings: Table 4, upland field foliage treatment, index 0-5
Method in brief: as §2

[16] = tested on: soybean (Glycine max); assay: Test Example 2 upland soil treatment, crop phytotoxicity; settings: Table 5, upland soil treatment, index 0-5
Method in brief: as §3

[17] = tested on: wheat (Triticum aestivum); assay: as above; settings: Table 5, upland soil treatment, index 0-5
Method in brief: as §3

Row | Structure (SMILES) | Herbicidal activity EC [1] | Herbicidal activity AM [2] | Herbicidal activity SJ [3] | Herbicidal activity MV [4] | Herbicidal activity OS (phytotoxicity to rice) [5] | Herbicidal activity (phytotoxicity) GM: Soybean (Glycine max) [6] | Herbicidal activity (phytotoxicity) TA: Wheat (Triticum aestivum) [7] | Herbicidal activity DA: Digitaria adscendens [8] | Herbicidal activity SM: Stellaria media [9] | Herbicidal activity CA: Chenopodium album [10] | Herbicidal activity SV: Setaria viridis [11] | Herbicidal activity DA: Digitaria adscendens [12] | Herbicidal activity SM: Stellaria media [13] | Herbicidal activity CA: Chenopodium album [14] | Herbicidal activity SV: Setaria viridis [15] | Herbicidal activity (phytotoxicity) GM: Soybean (Glycine max) [16] | Herbicidal activity (phytotoxicity) TA: Wheat (Triticum aestivum) [17]
1 | CNC(=O)C(Cn1cc(C)c(-c2ccc(OC)cc2)n1)=NOC [Compound 41, 2-methoxyimino-3-((4′-methoxyphenyl)-4-methyl-pyrazole)-1-yl-propanoic acid-N-methylamide] | 5 (herbicidal effect of not less than 90%, or phytotoxicity of 90% or more) | 5 (herbicidal effect of not less than 90%, or phytotoxicity of 90% or more) | 5 (herbicidal effect of not less than 90%, or phytotoxicity of 90% or more) | 5 (herbicidal effect of not less than 90%, or phytotoxicity of 90% or more) | 0 (herbicidal effect of not less than 0% and less than 10%, or phytotoxicity of 0% or more and less than 10%) | 1 (herbicidal effect of not less than 10% and less than 30%, or phytotoxicity of 10% or more and less than 30%) | 0 (herbicidal effect of not less than 0% and less than 10%, or phytotoxicity of 0% or more and less than 10%) | 5 (herbicidal effect of not less than 90%, or phytotoxicity of 90% or more) | 5 (herbicidal effect of not less than 90%, or phytotoxicity of 90% or more) | 5 (herbicidal effect of not less than 90%, or phytotoxicity of 90% or more) | 5 (herbicidal effect of not less than 90%, or phytotoxicity of 90% or more) | 5 (herbicidal effect of not less than 90%, or phytotoxicity of 90% or more) | 5 (herbicidal effect of not less than 90%, or phytotoxicity of 90% or more) | 5 (herbicidal effect of not less than 90%, or phytotoxicity of 90% or more) | 5 (herbicidal effect of not less than 90%, or phytotoxicity of 90% or more) | 1 (herbicidal effect of not less than 10% and less than 30%, or phytotoxicity of 10% or more and less than 30%) | 0 (herbicidal effect of not less than 0% and less than 10%, or phytotoxicity of 0% or more and less than 10%)
2 | CNC(=O)C(Cn1cc(C)c(-c2cccc(F)c2)n1)=NOC [Compound 43] | 5 (herbicidal effect of not less than 90%, or phytotoxicity of 90% or more) | 5 (herbicidal effect of not less than 90%, or phytotoxicity of 90% or more) | 5 (herbicidal effect of not less than 90%, or phytotoxicity of 90% or more) | 5 (herbicidal effect of not less than 90%, or phytotoxicity of 90% or more) | 1 (herbicidal effect of not less than 10% and less than 30%, or phytotoxicity of 10% or more and less than 30%) | 0 (herbicidal effect of not less than 0% and less than 10%, or phytotoxicity of 0% or more and less than 10%) | 0 (herbicidal effect of not less than 0% and less than 10%, or phytotoxicity of 0% or more and less than 10%) | 5 (herbicidal effect of not less than 90%, or phytotoxicity of 90% or more) | 5 (herbicidal effect of not less than 90%, or phytotoxicity of 90% or more) | 5 (herbicidal effect of not less than 90%, or phytotoxicity of 90% or more) | 5 (herbicidal effect of not less than 90%, or phytotoxicity of 90% or more) | 5 (herbicidal effect of not less than 90%, or phytotoxicity of 90% or more) | 5 (herbicidal effect of not less than 90%, or phytotoxicity of 90% or more) | 5 (herbicidal effect of not less than 90%, or phytotoxicity of 90% or more) | 5 (herbicidal effect of not less than 90%, or phytotoxicity of 90% or more) | 1 (herbicidal effect of not less than 10% and less than 30%, or phytotoxicity of 10% or more and less than 30%) | 0 (herbicidal effect of not less than 0% and less than 10%, or phytotoxicity of 0% or more and less than 10%)
3 | CNC(=O)C(Cn1cc(C)c(-c2ccc(F)cc2)n1)=NOC [Compound 44] | 5 (herbicidal effect of not less than 90%, or phytotoxicity of 90% or more) | 5 (herbicidal effect of not less than 90%, or phytotoxicity of 90% or more) | 5 (herbicidal effect of not less than 90%, or phytotoxicity of 90% or more) | 5 (herbicidal effect of not less than 90%, or phytotoxicity of 90% or more) | 1 (herbicidal effect of not less than 10% and less than 30%, or phytotoxicity of 10% or more and less than 30%) | 0 (herbicidal effect of not less than 0% and less than 10%, or phytotoxicity of 0% or more and less than 10%) | 0 (herbicidal effect of not less than 0% and less than 10%, or phytotoxicity of 0% or more and less than 10%) | 5 (herbicidal effect of not less than 90%, or phytotoxicity of 90% or more) | 5 (herbicidal effect of not less than 90%, or phytotoxicity of 90% or more) | 5 (herbicidal effect of not less than 90%, or phytotoxicity of 90% or more) | 5 (herbicidal effect of not less than 90%, or phytotoxicity of 90% or more) | 5 (herbicidal effect of not less than 90%, or phytotoxicity of 90% or more) | 5 (herbicidal effect of not less than 90%, or phytotoxicity of 90% or more) | 5 (herbicidal effect of not less than 90%, or phytotoxicity of 90% or more) | 5 (herbicidal effect of not less than 90%, or phytotoxicity of 90% or more) | 0 (herbicidal effect of not less than 0% and less than 10%, or phytotoxicity of 0% or more and less than 10%) | 0 (herbicidal effect of not less than 0% and less than 10%, or phytotoxicity of 0% or more and less than 10%)
4 | CNC(=O)C(Cn1cc(C)c(-c2ccc(Cl)cc2)n1)=NOC [Compound 47] | 5 (herbicidal effect of not less than 90%, or phytotoxicity of 90% or more) | 5 (herbicidal effect of not less than 90%, or phytotoxicity of 90% or more) | 5 (herbicidal effect of not less than 90%, or phytotoxicity of 90% or more) | 5 (herbicidal effect of not less than 90%, or phytotoxicity of 90% or more) | 0 (herbicidal effect of not less than 0% and less than 10%, or phytotoxicity of 0% or more and less than 10%) | 0 (herbicidal effect of not less than 0% and less than 10%, or phytotoxicity of 0% or more and less than 10%) | 0 (herbicidal effect of not less than 0% and less than 10%, or phytotoxicity of 0% or more and less than 10%) | 5 (herbicidal effect of not less than 90%, or phytotoxicity of 90% or more) | 5 (herbicidal effect of not less than 90%, or phytotoxicity of 90% or more) | 5 (herbicidal effect of not less than 90%, or phytotoxicity of 90% or more) | 5 (herbicidal effect of not less than 90%, or phytotoxicity of 90% or more) | 5 (herbicidal effect of not less than 90%, or phytotoxicity of 90% or more) | 5 (herbicidal effect of not less than 90%, or phytotoxicity of 90% or more) | 5 (herbicidal effect of not less than 90%, or phytotoxicity of 90% or more) | 5 (herbicidal effect of not less than 90%, or phytotoxicity of 90% or more) | 0 (herbicidal effect of not less than 0% and less than 10%, or phytotoxicity of 0% or more and less than 10%) | 0 (herbicidal effect of not less than 0% and less than 10%, or phytotoxicity of 0% or more and less than 10%)
